Source: patent US7658706B2, “Vascular graft sterilization and decellularization” (RTI Biologics, Inc., priority 2005, dated 2010)

Legend:
[1] = Biocompatibility of the detergent injected in a rat; format: in vivo, Sprague Dawley rats; details: 0.25%, 0.1%, 0.01%, 0.001% in four sites, 6 weeks after surgery
Description: Four implants from each group go into one rat for a total of 7 rats and 28 implant sites. An eighth rat is injected in four sites with decreasing concentrations of sodium deoxycholate (0.25%, 0.1%, 0.01%, 0.001%) to measure the biocompatibility of the detergent.

[2] = tested on: class I MHC antigens in human saphenous vein; test: Immunohistochemical stain for class I MHC antigens after decellularization (Example 1); details: high concentrations and high temperatures
Description: The effectiveness of cell and cellular debris removal was evaluated using two detergent and two enzyme solutions at various concentrations (Table 2). […] One treatment group combined Triton-X 100 with sodium deoxycholate. Trypsin alone at 0.05% (w/v) or 1.0% (w/v) and in combination with 0.02% (w/v) EDTA were the enzyme solutions used in the decellularization process.
(§1) Samples were then rinsed in PBS at room temperature for 10 minutes while continuously shaking. Following the rinse step, the samples were cut in half and either prepared for histology or immunohistochemistry.
Immunohistochemistry was used to determine the level of antigens remaining in the tissue after treatment. […] Samples were prepared in frozen blocks and sectioned with a cryostat. The sections were thawed and then rinsed for blocking and antibody staining. Sections were incubated for 30 minutes in primary antibody (mouse anti-HLA-ABC class I MHC) solution and then for anther 30 minutes in diluted biotinylated secondary antibody (Vector ABC Elite kit) solution. An enzyme substrate, NovaRed (Vector), was used to stain the antibodies red. The counter stain was hematoxylin providing a blue contrast.
A Zeiss Axiophot 2 microscope with a motorized Ludl scanning stage was used with tile field mapping at 5× to capture the entire image in one frame. Particle analysis was performed in Image J to determine the ratio of antigen staining (red) to the total tissue sample.
A blue and green filter was applied to only allow red to pass. Obvious areas of antigen staining were removed due to this variation in red hue. […] All samples were compared to their negatives for a percentage of red staining.
This procedure was applied to all images. […] The treatment groups are labeled according to the detergent or enzyme used followed by the processing conditions. For the Trypsin and Trypsin+EDTA groups, the concentrations ranged from 0.05% (L) to 1.0% (H), the processing temperatures were 37° C. (L), 48° C. (M) and 55° C. (H), and the processing times were 6 hrs (L), 17 hrs (M) and 24 hrs (H).

[3] = tested on: collagen; test: Collagen denaturation, quantitative enzyme digestion assay (matrix integrity); details: Triton 1.0%, Cholate 0.25%, 48° C., 24 hours, constant agitation (FIG. 11)
Description: One of the major structural components of the extracellular matrix that gives veins their strength is collagen. Damage to collagen can result in mechanical failures such as increased compliance or aneurism formation. It can also result in a cellular response due the exposure of the triple helix when stability is compromised. The amount of collagen denaturation was assessed to evaluate processing conditions with a quantitative enzyme digestion assay. […] Digested and undigested fractions are separated and hydrolyzed with concentrated hydrochloric acid (HCl) to release free amino acids from each fraction. Following neutralization of the acid in 1 N NaOH, levels of hydroxyproline (an amino acid present in high concentrations in collagen) are assessed in each fraction by a calorimetric method at a wavelength of 550 nm (Chloramine T binding, and reduction of the substrate DAB to a colored end product). The level of denatured collagen in a given sample is then expressed as a percent of the trypsin soluble fraction to the sum of both trypsin soluble and trypsin insoluble fractions.
Achieving the appropriate log reduction should not come at the expense of the integrity of the extracellular matrix. […] The effect of hydrogen peroxide at 6% at 40° C. and 50° C. on collagen was compared to PAA at 0.1% at the same specified temperatures.
Digested and undigested fractions are separated and hydrolyzed with concentrated hydrochloric acid (HCl) to release free amino acids from each fraction. Following neutralization of the acid in 1 N NaOH, levels of hydroxyproline (an amino acid present in high concentrations only in collagen) are assessed in each fraction by a calorimetric method (Chloramine T binding, and reduction of the substrate DAB to a colored end product). The level of denatured collagen in a given sample is then expressed as a percent of the trypsin soluble fraction to the sum of both trypsin soluble and trypsin insoluble fractions.

[4] = tested on: human saphenous vein; test: Histology (H&E) for cellularity and matrix (Example 1); details: 1.0% Cholate at 48° C.
Description: as §1, with “Samples of human saphenous veins 10 mm in length were placed in each of the test solution at 37° C. or 48° C. for both 6 and 24 hours while continuously shaking. Samples” for “Samples”
Samples were placed in 10% buffered formalin immediately following the rinse step and remained there for at least 24 hours before further preparation. Then, the samples were embedded in paraffin and stained with hematoxylin and eosin (H&E) to determine cellularity.
The results of the immunohistochemical stain were compared to histology slides stained for cellularity (FIGS. 7 to 10). […] The extracellular matrix is preserved in each segment except with 1.0% Cholate at 48° C.

sodium deoxycholate
response to injected detergent [1]: No response was noted | removal of class I MHC staining [2]: approximately 100% | staining [2]: approximately 0% | collagen degradation compared to untreated controls [3]: A significant degradative effect was not seen | extracellular matrix in histology [4]: large holes within the venous wall and separation between the fibers
